The text below walks through data of patent US20100035996A1, “GLUCOSE METABOLISM STIMULATING AGENT” (Shionogi & Co Ltd, priority 2006, published 2010).

Holding throughout (type): in vivo
For data set [1], the system named is male C57BL/6J-ob/ob mice. The experiment in a line: Glucose tolerance test in obesity model mice, short-term administration. As to conditions: 100 mg/kg oral gavage. As for the experimental part: (§1) The following Examples 1 to 3 were carried out in an obesity model mouse, male C57BL/6J-ob/ob mice (12-17 week old, 40-60 g) to study the effect of Compound (a) on glucose metabolism in mice.
Compound (a) was administered to mice for short term and then glucose tolerance test was performed. In the morning (8:00-10:00) of the previous day of the test, hydroxypropylmethyl cellulose solution (0.5% w/v, Shin-Etsu Chemical Co., Ltd) or Compound (a) at 100 mg/kg suspended in the solution was administered by oral gavage. Food was removed just after the administration. Mice were kept under fasting until the end of glucose tolerance test. In this period, the mice were allowed free access to water. The oral administration was also performed in the evening of the previous day of the test (17:00-18:00) and in the morning of the day of the test (8:00-9:00). Glucose tolerance test was carried out in the afternoon (13:00-16:00), and AUC was calculated as described in Example 1 (FIG. 3).

Data set [2] has as its system male C57BL/6J-ob/ob mice. Description: Glucose tolerance test in obesity model mice, administration for 4 weeks. As to conditions: for AUC of plasma glucose levels in glucose tolerance test: oral glucose 2 g/kg, 0-120 min, control 29863. As for the experimental part: as §1
(§2) Hydroxypropylmethyl cellulose solution (0.5% w/v, Shin-Etsu Chemical Co., Ltd) or Compound (a) or (b) suspended in the solution were orally administered at 25, 50 or 100 mg/kg twice a day (8:00-10:00, 16:30-18:00) for 4 weeks. Food was removed in the morning (8:00-9:00) of the last day of administration. Mice were kept under fasting until the end of glucose tolerance test. In this period, the mice were allowed free access to water. The next day, glucose tolerance test was carried out in the afternoon (13:00-16:00). Blood was collected from tail veins just before and at 15, 30, 60 and 120 minutes after oral administration of glucose (2 g/kg) to examine plasma glucose levels. AUC (area under the curve) was calculated by the trapezoidal method from the graphs made with obtained values (FIG. 1). AUCs in mice treated with Compound (a) at 25 mg/kg, 50 mg/kg and 100 mg/kg were 25610 mg·min/dL, 20315 mg·min/dL and 15848 mg·min/dL, respectively. AUC in control mice (dosed with 0.5% hydroxypropylmethyl cellulose solution) was 29863 mg·min/dL.

The test system of data set [3] is male C57BL/6J-ob/ob mice. The experiment in a line: Body weight change during the 4-week dosing period. As to conditions: 25, 50 or 100 mg/kg orally twice a day for 4 weeks (FIG. 2). The protocol: as §1, §2
The test system of data set [4] is male C57BL/6J-ob/ob mice. Description: Glucose tolerance test in obesity model mice, administration for 1 week. As to conditions: 100 mg/kg orally twice a day for a week. The protocol:
as §1
Hydroxypropylmethyl cellulose solution (0.5% w/v, Shin-Etsu Chemical Co., Ltd) or Compound (b) suspended in the solution were orally administered at 100 mg/kg twice a day (8:00-10:00, 16:30-18:00) for a week. Food was removed in the morning (8:00-9:00) of the last day of administration. Mice were kept under fasting until the end of glucose tolerance test. In this period, the mice were allowed free access to water. The next day, glucose tolerance test was carried out in the afternoon (13:00-16:00) and then AUC was calculated as described in Example 1 (FIG. 4).

[5] abbreviates: 100 mg/kg orally twice a day for 4 weeks.

Consider `CC(C)(C)S(=O)(=O)N[C@H]1CC[C@H](C(=O)Nc2ccc(C(F)(F)F)cn2)CC1` [Compound (a)], for which the “AUC of plasma glucose levels in glucose tolerance test” value in data set [1] (three doses (morning and evening of previous day, morning of test day), control 15033) worked out at 22423 mg·min/dL; in data set [2] (25 mg/kg orally twice a day for 4 weeks), 25610 mg·min/dL; in data set [2] (50 mg/kg orally twice a day for 4 weeks) it was 20315 mg·min/dL; in data set [2] (setting [5]), 15848 mg·min/dL. In addition, the “AUC compared to control mice” value in data set [1] (three doses, short term) is given as “statistically significant decrease”; in data set [2] (setting [5]), “statistically significant decrease”. Further, in data set [2] (25, 50, 100 mg/kg orally twice a day for 4 weeks), the “AUC change across doses” value is recorded as “decreased with dose-dependent manner”. The “Change in body weight during the dosing period” value in data set [3] was “no statistically significant change”.

As to `CCS(=O)(=O)N[C@H]1CC[C@H](C(=O)Nc2ccc(N3C[C@@H](C)O[C@@H](C)C3)cc2)CC1` [Compound (b)], the “AUC compared to control mice” value in data set [4] is reported as “statistically significant decrease”. Further, the “AUC of plasma glucose levels in glucose tolerance test” value in data set [4] (control 22532) is listed as 15546 mg·min/dL.
